Source: US20070027175A1, “Antineoplastic activities of ellipticine and its derivatives” (priority 2005, published 2007)
Where two headings read alike, the source gives them in different places.

Key:
[1] = tested on: Ark myeloma cell line; test: CellTiter-Glo luminescent cell viability assay, Ark; type: cell-based, human; set-up: unit of the concentration uncertain
Procedure: (§1) The dosage of each derivative was set at 2, 0.2 and 0.02 mM. A cell culture medium control and 0.5% DMSO control was maintained in each experiment. The cell viability was tested each day over a period of five days using the CellTiter-Glo luminescent cell viability assay kit from Promega Co.
(§2) Cell Titer-Glo luminescent cell viability assay kit from Promega Co (Madison, Wis.) was used to determine cell growth inhibition by the various compounds tested. The kit determines cell viability by quantifying the amount of ATP present in the cell culture medium. Presence of ATP signals the presence of metabolically active cells (3). The intensity of luminescence was measured by a computerized luminometer (Promega, Co. Madison, Wis.). Each well was read five times within 30 minutes of adding Cell Titer-Glo reagent mixture.
(§3) Cells were contacted with the antineoplastic agents in ninety six well culture plates. The concentration of each neoplastic agent was maintained a constant. A cell culture medium control and 0.5% DMSO control were maintained in each set of experiments. The cell viability was tested every day using the CellTiter-Glo luminescent cell viability kit from Promega Co. (Madison, Wis.) for a period of five days.

[2] = tested on: CAG myeloma cell line; test: CellTiter-Glo luminescent cell viability assay, CAG; type: cell-based, human; set-up: unit of the concentration uncertain
Procedure: as §1, §2, §3

[3] = tested on: U266 myeloma cell line; set-up: cell viability (CellTiter-Glo luminescent assay): dose or concentration left out as unconfirmed; details: U266
Procedure: as §1
U266 cell line was one of 12 myeloma cell lines used in screening of anti-myeloma agents. In FIG. 10A, cells were treated with 14 ellipticine derivatives (0.5 mM) obtained from the DTP; control cells were untreated. Ellipticine derivatives are coded with NSC identifiers. For 5 days, cell viability was measured every 24 hours using CellTiter-Glo Luminescent Assay. […] In FIG. 10B, U266 cells, along with six other myeloma cell lines, were co-cultured in direct contact with human fetal bone mesenchymal cells and treated with EPED3 (0.5 mM and 2 mM) or Velcade (0.5 mM); control cells were untreated. Cell proliferation was assessed by MTT assay every 24 hours for 5 days. […] Error bars indicate standard deviation.
as §2, §3

[4] = tested on: RPMI8226 myeloma cell line; test: CellTiter-Glo luminescent cell viability assay, RPMI8226; type: cell-based, human; set-up: unit of the concentration uncertain
Procedure: as §1
as §2, with “mixture. […]” for “mixture.”

[5] = tested on: NCI-60 cancer panel; details: average across the cell lines of the concentration at which growth is inhibited 50%; unit in the High Conc. footnote; cited from earlier work

Cc1c2ccncc2c(C)c2c1[nH]c1ccccc12 [Ellipticine, 5,11-Dimethyl-6H-Pyridol[4,3]carbazole]
cell viability (CellTiter-Glo luminescent assay) ([1]; 0.02 (unit uncertain), Day 1): 120,709
cell viability (CellTiter-Glo luminescent assay) ([1]; 0.02 (unit uncertain), Day 2): 208,608
cell viability (CellTiter-Glo luminescent assay) ([1]; 0.02 (unit uncertain), Day 3): 268,420
cell viability (CellTiter-Glo luminescent assay) ([1]; 0.02 (unit uncertain), Day 4): 802,063
cell viability (CellTiter-Glo luminescent assay) ([1]; 0.02 (unit uncertain), Day 5): 1,049,792
cell viability (CellTiter-Glo luminescent assay) ([1]; 0.2 (unit uncertain), Day 1): 125,251
cell viability (CellTiter-Glo luminescent assay) ([1]; 0.2 (unit uncertain), Day 2): 230,950
cell viability (CellTiter-Glo luminescent assay) ([1]; 0.2 (unit uncertain), Day 3): 331,985
cell viability (CellTiter-Glo luminescent assay) ([1]; 0.2 (unit uncertain), Day 4): 877,082
cell viability (CellTiter-Glo luminescent assay) ([1]; 0.2 (unit uncertain), Day 5): 1,183,902
cell viability (CellTiter-Glo luminescent assay) ([1]; 2 (unit uncertain), Day 1): 86,010
cell viability (CellTiter-Glo luminescent assay) ([1]; 2 (unit uncertain), Day 2): 98,439
cell viability (CellTiter-Glo luminescent assay) ([1]; 2 (unit uncertain), Day 3): 70,824
cell viability (CellTiter-Glo luminescent assay) ([1]; 2 (unit uncertain), Day 4): 44,913
cell viability (CellTiter-Glo luminescent assay) ([1]; 2 (unit uncertain), Day 5): 10,996
cell viability (CellTiter-Glo luminescent assay) ([2]; 0.02 (unit uncertain), Day 1): 200,429
cell viability (CellTiter-Glo luminescent assay) ([2]; 0.02 (unit uncertain), Day 2): 557,030
cell viability (CellTiter-Glo luminescent assay) ([2]; 0.02 (unit uncertain), Day 3): 1,243,718
cell viability (CellTiter-Glo luminescent assay) ([2]; 0.02 (unit uncertain), Day 4): 2,718,974
cell viability (CellTiter-Glo luminescent assay) ([2]; 0.02 (unit uncertain), Day 5): 4,443,641
cell viability (CellTiter-Glo luminescent assay) ([2]; 0.2 (unit uncertain), Day 1): 196,263
cell viability (CellTiter-Glo luminescent assay) ([2]; 0.2 (unit uncertain), Day 2): 541,300
cell viability (CellTiter-Glo luminescent assay) ([2]; 0.2 (unit uncertain), Day 3): 1,117,650
cell viability (CellTiter-Glo luminescent assay) ([2]; 0.2 (unit uncertain), Day 4): 2,568,444
cell viability (CellTiter-Glo luminescent assay) ([2]; 0.2 (unit uncertain), Day 5): 4,443,292
cell viability (CellTiter-Glo luminescent assay) ([2]; 2 (unit uncertain), Day 1): 136,450
cell viability (CellTiter-Glo luminescent assay) ([2]; 2 (unit uncertain), Day 2): 200,722
cell viability (CellTiter-Glo luminescent assay) ([2]; 2 (unit uncertain), Day 3): 234,414
cell viability (CellTiter-Glo luminescent assay) ([2]; 2 (unit uncertain), Day 4): 308,480
cell viability (CellTiter-Glo luminescent assay) ([2]; 2 (unit uncertain), Day 5): 281,302
cell viability (CellTiter-Glo luminescent assay) ([3]; 0.02, Day 1): 31,950
cell viability (CellTiter-Glo luminescent assay) ([3]; 0.02, Day 2): 47,812
cell viability (CellTiter-Glo luminescent assay) ([3]; 0.02, Day 3): 66,571
cell viability (CellTiter-Glo luminescent assay) ([3]; 0.02, Day 4): 115,083
cell viability (CellTiter-Glo luminescent assay) ([3]; 0.02, Day 5): 152,839
cell viability (CellTiter-Glo luminescent assay) ([3]; 0.2, Day 1): 32,490
cell viability (CellTiter-Glo luminescent assay) ([3]; 0.2, Day 2): 47,622
cell viability (CellTiter-Glo luminescent assay) ([3]; 0.2, Day 3): 62,648
cell viability (CellTiter-Glo luminescent assay) ([3]; 0.2, Day 4): 106,989
cell viability (CellTiter-Glo luminescent assay) ([3]; 0.2, Day 5): 132,439
cell viability (CellTiter-Glo luminescent assay) ([3]; 2, Day 1): 23,680
cell viability (CellTiter-Glo luminescent assay) ([3]; 2, Day 2): 31,682
cell viability (CellTiter-Glo luminescent assay) ([3]; 2, Day 3): 33,129
cell viability (CellTiter-Glo luminescent assay) ([3]; 2, Day 4): 40,656
cell viability (CellTiter-Glo luminescent assay) ([3]; 2, Day 5): 38,403
cell viability (CellTiter-Glo luminescent assay) ([4]; 0.02 (unit uncertain), Day 1): 110,290
cell viability (CellTiter-Glo luminescent assay) ([4]; 0.02 (unit uncertain), Day 2): 244,140
cell viability (CellTiter-Glo luminescent assay) ([4]; 0.02 (unit uncertain), Day 3): 390,151
cell viability (CellTiter-Glo luminescent assay) ([4]; 0.02 (unit uncertain), Day 4): 898,067
cell viability (CellTiter-Glo luminescent assay) ([4]; 0.02 (unit uncertain), Day 5): 966,857
cell viability (CellTiter-Glo luminescent assay) ([4]; 0.2 (unit uncertain), Day 1): 107,014
cell viability (CellTiter-Glo luminescent assay) ([4]; 0.2 (unit uncertain), Day 2): 235,145
cell viability (CellTiter-Glo luminescent assay) ([4]; 0.2 (unit uncertain), Day 3): 355,794
cell viability (CellTiter-Glo luminescent assay) ([4]; 0.2 (unit uncertain), Day 4): 774,806
cell viability (CellTiter-Glo luminescent assay) ([4]; 0.2 (unit uncertain), Day 5): 921,077
cell viability (CellTiter-Glo luminescent assay) ([4]; 2 (unit uncertain), Day 1): 87,440
cell viability (CellTiter-Glo luminescent assay) ([4]; 2 (unit uncertain), Day 2): 115,263
cell viability (CellTiter-Glo luminescent assay) ([4]; 2 (unit uncertain), Day 3): 110,776
cell viability (CellTiter-Glo luminescent assay) ([4]; 2 (unit uncertain), Day 4): 126,944
cell viability (CellTiter-Glo luminescent assay) ([4]; 2 (unit uncertain), Day 5): 85,699

C[C@@H]1C[C@@H]2OC(=O)[C@]3(C)[C@H]2[C@@H](OC3(C)O)[C@]2(C)C(=O)C=C[C@@H]12 (stereo partly drawn) [NSC 19942, Tenulin]
Mean GI50 [5]: −4.68 log^10 molar

CN(C)CC1CCCCCC(Br)C1=O.O=C(O)C(=O)O (stereo not drawn) [NSC 130789]
Mean GI50 [5]: −4.96 log^10 molar

Nc1ncnc2c1ncn2[C@@H]1C=C(CO)[C@@H](O)[C@H]1O [NSC 316458, Neplanocin A]
Mean GI50 [5]: −5.43 log^10 molar

CNC(=S)NC(=S)N(C)C [NSC 622693]
Mean GI50 [5]: −4.53 log^10 molar

Cc1ccc(S(=O)(=O)N=NC=C2c3ccccc3N(O)c3ccccc32)cc1 [NSC 627891]
Mean GI50 [5]: −5.43 log^10 molar

O=C1N(c2ccc(Cl)cc2)C(=O)C2(SC=NN2Cc2ccccc2)N1c1ccc(Cl)cc1 (stereo not drawn) [NSC 630740]
Mean GI50 [5]: −4.26 log^10 molar

COc1ccc2[nH]c3c(C)c4cc[n+](COC(=O)c5ccccc5)cc4c(C)c3c2c1 [NSC 632620]
Mean GI50 [5]: −6.52 log^10 molar

C=C1C(OC(=O)/C=C/c2ccccc2)CC(OC(C)=O)C2(C)C1CC1CC(OC(C)=O)C(C)=C(C(OC(C)=O)C2OC(C)=O)C1(C)C (stereo not drawn) [NSC 636859, Cuspidatin C]
Mean GI50 [5]: −4.46 log^10 molar

CCCCC(=O)OC[n+]1ccc2c(C)c3[nH]c4ccc(OC)cc4c3c(C)c2c1.[I-] [NSC 637126]
Mean GI50 [5]: −6.40 log^10 molar

CCCCCCC(=O)OC[n+]1ccc2c(C)c3[nH]c4ccccc4c3c(C)c2c1 [NSC 637132]
Mean GI50 [5]: −6.09 log^10 molar

O=C(/C=C/c1ccc(Cl)c(Cl)c1)c1ccc(Cl)cc1Cl [NSC 640531]
Mean GI50 [5]: −4.99 log^10 molar

C#CCN(N=O)C(=O)NCCCC(NC(C)=O)C(=O)NCc1ccccc1 (stereo not drawn) [NSC 645583]
Mean GI50 [5]: −4.17 log^10 molar

O=C1/C(=C/C=C/c2ccccc2)CCC1CNc1ccccc1 (stereo not drawn) [NSC 661238]
Mean GI50 [5]: −4.47 log^10 molar

CSc1nc[nH]c1C(N)=S [NSC 684041]
Mean GI50 [5]: −4.11 log^10 molar

Cc1cc2[nH]c3c(C#N)c(-c4ccccc4)c(N=Nc4cccc(C(F)(F)F)c4)c(=O)n3c2cc1C [NSC 699959]
Mean GI50 [5]: −4.53 log^10 molar
